# Laboratory results taken from PubChem BioAssay (NCI).
# Values joined by “and” are separate entries in the source; they are usually repeats but may differ in a detail not shown here. Equal entries are not always repeated.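 How tested: cells in 96-well plates exposed to compound for 48 hours at five concentrations. Abbreviation: GI50, concentration required for 50% inhibition of growth. TGI marks complete inhibition of growth.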
# Key:
# Test in all cases: NCI tumour cell line growth inhibition, 48 h
# UACC-257 melanoma = system: UACC-257 melanoma
# HCC-2998 colon = system: HCC-2998 colon
# UACC-62 melanoma = system: UACC-62 melanoma
# SR leukemia = system: SR leukemia
# HT29 colon = system: HT29 colon
# HL-60(TB) leukemia = system: HL-60(TB) leukemia
# MOLT-4 leukemia = system: MOLT-4 leukemia
# HCT-15 colon = system: HCT-15 colon
# OVCAR-4 ovarian = system: OVCAR-4 ovarian
# SF-268 CNS = system: SF-268 CNS
smiles,measurement,setting,value
Cn1cc(C(=O)C[n+]2ccccc2)c2ccccc21,TGI,UACC-257 melanoma,> 100 µM
same,TGI,HCC-2998 colon,> 100 µM
same,TGI,UACC-62 melanoma,> 100 µM
same,TGI,SR leukemia,> 100 µM
same,TGI,HT29 colon,> 100 µM
same,TGI,HL-60(TB) leukemia,> 100 µM
same,TGI,MOLT-4 leukemia,> 100 µM
same,TGI,HCT-15 colon,> 100 µM
same,TGI,OVCAR-4 ovarian,> 100 µM
CN(C)CC/[N+]([O-])=C(/c1ccccc1)C12CC3CC(CC(C3)C1)C2,TGI,UACC-257 melanoma,29.9 µM
same,TGI,HCC-2998 colon,37.6 µM
same,TGI,UACC-62 melanoma,27.8 µM
same,TGI,SF-268 CNS,35.9 µM
same,TGI,SR leukemia,43.9 µM
same,TGI,HT29 colon,23.8 µM
same,TGI,HL-60(TB) leukemia,26.1 µM
same,TGI,MOLT-4 leukemia,34.1 µM
same,TGI,HCT-15 colon,38.8 µM
O=C(c1ccccc1)c1cn(/N=C\c2ccccc2)c(=O)nc1-c1ccccc1,TGI,UACC-257 melanoma,> 100 µM
same,TGI,HCC-2998 colon,> 100 µM
same,TGI,UACC-62 melanoma,> 100 µM
same,TGI,SF-268 CNS,> 100 µM
same,TGI,HT29 colon,> 100 µM
same,TGI,MOLT-4 leukemia,> 100 µM
same,TGI,HCT-15 colon,> 100 µM
same,TGI,OVCAR-4 ovarian,> 100 µM
CC(=O)C1=C(O)CC2CC3c4[nH]c5ccccc5c4CCN3CC2C1 (configuration not stated),TGI,UACC-257 melanoma,> 100 µM
same,TGI,HCC-2998 colon,> 100 µM
same,TGI,SF-268 CNS,> 100 µM
same,TGI,SR leukemia,58.5 µM
same,TGI,HT29 colon,> 100 µM
same,TGI,HL-60(TB) leukemia,> 100 µM
same,TGI,MOLT-4 leukemia,70.6 µM
same,TGI,HCT-15 colon,> 100 µM
same,TGI,OVCAR-4 ovarian,> 100 µM
CC(C)=CC1=C2C3=C(C(=O)C4(O)Oc5c(C)c6c7c(c5OC24C)[C@@H](C)CC[C@@H]7[C@@H](C)C[C@H]6C=C(C)C)C(C)CCC3C(C)C1 (some centres not stated),GI50,UACC-257 melanoma,> 100 µM
same,TGI,UACC-257 melanoma,> 100 µM
same,GI50,HCC-2998 colon,> 100 µM
same,TGI,HCC-2998 colon,> 100 µM
same,GI50,UACC-62 melanoma,> 100 µM
same,TGI,UACC-62 melanoma,> 100 µM
same,GI50,SF-268 CNS,> 100 µM
same,TGI,SF-268 CNS,> 100 µM
same,GI50,SR leukemia,> 100 µM
same,TGI,SR leukemia,> 100 µM
same,GI50,HT29 colon,> 100 µM
same,TGI,HT29 colon,> 100 µM
same,GI50,MOLT-4 leukemia,> 100 µM
same,TGI,MOLT-4 leukemia,> 100 µM
same,GI50,HCT-15 colon,> 100 µM
same,TGI,HCT-15 colon,> 100 µM
same,GI50,OVCAR-4 ovarian,> 100 µM
same,TGI,OVCAR-4 ovarian,> 100 µM
OCC#Cc1ccccc1C#CCCCCCC#Cc1ccccc1C#CCO,GI50,UACC-257 melanoma,15.7 µM
same,TGI,UACC-257 melanoma,31.4 µM
same,GI50,UACC-62 melanoma,17.9 µM
same,TGI,UACC-62 melanoma,32.3 µM
same,GI50,SF-268 CNS,18.8 µM
same,TGI,SF-268 CNS,38.7 µM
same,GI50,SR leukemia,18.1 µM
same,TGI,SR leukemia,40.7 µM
same,GI50,HT29 colon,21.6 µM
same,TGI,HT29 colon,> 100 µM
same,GI50,HL-60(TB) leukemia,18.8 µM
same,TGI,HL-60(TB) leukemia,41.8 µM
same,GI50,MOLT-4 leukemia,15.6 µM
same,TGI,MOLT-4 leukemia,37.3 µM
same,GI50,HCT-15 colon,15.9 µM
same,TGI,HCT-15 colon,30.7 µM
same,GI50,OVCAR-4 ovarian,41 µM
same,TGI,OVCAR-4 ovarian,> 100 µM
CSc1nc(SC)c2c(CO)c(Br)n(Cc3ccccc3)c2n1,TGI,HCC-2998 colon,> 100 µM
same,TGI,UACC-62 melanoma,41.9 µM
same,TGI,SF-268 CNS,33.7 µM
same,TGI,SR leukemia,> 100 µM
same,TGI,HT29 colon,> 100 µM
same,TGI,HL-60(TB) leukemia,> 100 µM
same,TGI,MOLT-4 leukemia,> 100 µM
same,TGI,HCT-15 colon,> 100 µM
same,TGI,OVCAR-4 ovarian,41.7 µM
C=C1C(=O)O[C@H]2[C@H]1CC/C(Cn1cc(-c3ccccc3C(F)(F)F)nn1)=C\CC[C@@]1(C)O[C@@H]21,GI50,HCC-2998 colon,1.85 µM
same,TGI,HCC-2998 colon,3.47 µM
same,GI50,SF-268 CNS,2.09 µM
same,TGI,SF-268 CNS,5.25 µM
same,GI50,HT29 colon,1.79 µM
same,TGI,HT29 colon,3.75 µM
same,GI50,HL-60(TB) leukemia,2.58 µM
same,TGI,HL-60(TB) leukemia,10.1 µM
same,GI50,MOLT-4 leukemia,3.03 µM
same,TGI,MOLT-4 leukemia,10.9 µM
same,GI50,HCT-15 colon,1.05 µM
same,TGI,HCT-15 colon,2.43 µM
same,GI50,OVCAR-4 ovarian,2.77 µM
same,TGI,OVCAR-4 ovarian,9.4 µM
Cc1cc2c(C)nn(Cc3ccc(Cl)cc3)c2c(C#N)c1C,TGI,UACC-257 melanoma,> 100 µM
same,TGI,HCC-2998 colon,> 100 µM
same,TGI,UACC-62 melanoma,> 100 µM
same,TGI,SF-268 CNS,> 100 µM
same,TGI,SR leukemia,> 100 µM
same,TGI,HL-60(TB) leukemia,> 100 µM
same,TGI,HCT-15 colon,> 100 µM
Clc1ccc(C(n2cc(Br)cn2)n2cc(Br)cn2)cc1,TGI,UACC-257 melanoma,29.3 µM
same,TGI,HCC-2998 colon,31.8 µM
same,TGI,UACC-62 melanoma,28.7 µM
same,TGI,SF-268 CNS,33.4 µM
same,TGI,HT29 colon,26.9 µM
same,TGI,HL-60(TB) leukemia,56.6 µM
same,TGI,MOLT-4 leukemia,47.9 µM
same,TGI,HCT-15 colon,33.2 µM
same,TGI,OVCAR-4 ovarian,26.4 µM
O=c1c2cc(Cl)ccc2sc2cccc(Cl)c12,TGI,UACC-257 melanoma,> 100 µM
same,TGI,UACC-62 melanoma,> 100 µM
same,TGI,SF-268 CNS,> 100 µM
same,TGI,SR leukemia,> 100 µM
same,TGI,HT29 colon,> 100 µM
same,TGI,HL-60(TB) leukemia,> 100 µM
same,TGI,MOLT-4 leukemia,> 100 µM
same,TGI,HCT-15 colon,> 100 µM
same,TGI,OVCAR-4 ovarian,> 100 µM
CN1C(=O)C2C(C1=O)C1(O)c3ccccc3C2(N)c2ccccc21 (configuration not stated),TGI,UACC-257 melanoma,> 100 µM
same,TGI,HCC-2998 colon,> 100 µM
same,TGI,UACC-62 melanoma,> 100 µM
same,TGI,SF-268 CNS,> 100 µM
same,TGI,HT29 colon,> 100 µM
same,TGI,HL-60(TB) leukemia,> 100 µM
same,TGI,MOLT-4 leukemia,> 100 µM
same,TGI,HCT-15 colon,> 100 µM
same,TGI,OVCAR-4 ovarian,> 100 µM
Cc1ccc(Cl)cc1NC(=O)c1sc2nc3c(cc2c1N)C(=O)CCC3,GI50,UACC-257 melanoma,7.3 µM
same,TGI,UACC-257 melanoma,> 100 µM
same,GI50,HCC-2998 colon,> 100 µM
same,TGI,HCC-2998 colon,> 100 µM
same,GI50,UACC-62 melanoma,4.45 µM
same,TGI,UACC-62 melanoma,> 100 µM
same,GI50,SF-268 CNS,> 100 µM
same,TGI,SF-268 CNS,> 100 µM
same,GI50,HT29 colon,3.54 µM
same,TGI,HT29 colon,> 100 µM
same,GI50,MOLT-4 leukemia,> 100 µM
same,TGI,MOLT-4 leukemia,> 100 µM
same,GI50,HCT-15 colon,4.79 µM
same,TGI,HCT-15 colon,> 100 µM
same,GI50,OVCAR-4 ovarian,> 100 µM
same,TGI,OVCAR-4 ovarian,> 100 µM
Cc1cn(-c2cc(NC(=O)c3ccc(C)c(Nc4nccc(-c5cccnc5)n4)c3)cc(C(F)(F)F)c2)cn1,GI50,UACC-257 melanoma,4.46 µM and 2.49 µM
same,TGI,UACC-257 melanoma,> 10 µM and 7.97 µM
same,TGI,HCC-2998 colon,> 65 µM
same,GI50,UACC-62 melanoma,1.65 µM and 1.09 µM
same,TGI,UACC-62 melanoma,> 10 µM and 9.18 µM
same,GI50,SF-268 CNS,5.78 µM and 3.45 µM
same,TGI,SF-268 CNS,> 10 µM and 15.2 µM
same,GI50,SR leukemia,3.06 µM and 2.67 µM
same,TGI,SR leukemia,> 10 µM and 26.9 µM
same,GI50,HT29 colon,1.7 µM and 1.94 µM
same,TGI,HT29 colon,> 10 µM and 9.13 µM
same,GI50,MOLT-4 leukemia,3.21 µM and 1.6 µM
same,TGI,MOLT-4 leukemia,> 37.2 µM
same,GI50,HCT-15 colon,3.18 µM and 4.6 µM
same,TGI,HCT-15 colon,> 38.3 µM
same,GI50,OVCAR-4 ovarian,5.15 µM and 2.39 µM
same,TGI,OVCAR-4 ovarian,> 10 µM and 7.32 µM
COC(=O)[C@@H](C)C[C@H](Cc1ccccc1)NC(=O)c1csc([C@@H](C[C@H](C(C)C)N(C)C(=O)[C@@H](NC(=O)[C@H]2CCCCN2C)C2CC2)OC(C)=O)n1,GI50,HCC-2998 colon,0.000338 µM and 0.00165 µM
same,TGI,HCC-2998 colon,> 16.5 µM
same,TGI,UACC-62 melanoma,> 16.5 µM
same,GI50,SF-268 CNS,0.000594 µM and 0.00165 µM
same,TGI,SF-268 CNS,> 16.5 µM
same,TGI,SR leukemia,> 16.5 µM
same,GI50,HT29 colon,0.000264 µM and 0.00165 µM
same,TGI,HT29 colon,0.00135 µM and 0.00208 µM
same,GI50,HL-60(TB) leukemia,0.000235 µM and < 0.00165 µM
same,TGI,HL-60(TB) leukemia,0.000839 µM and < 0.00165 µM
same,GI50,MOLT-4 leukemia,0.00464 µM and 0.00165 µM
same,TGI,MOLT-4 leukemia,> 16.5 µM
same,GI50,HCT-15 colon,0.00131 µM and 0.00165 µM
same,TGI,HCT-15 colon,> 16.5 µM
same,GI50,OVCAR-4 ovarian,0.00909 µM and 0.006 µM
same,TGI,OVCAR-4 ovarian,> 16.5 µM
N#CC1CCCCCCCCCCC(=O)N(CCCl)C1=O (configuration not stated),TGI,UACC-257 melanoma,> 100 µM
same,TGI,HCC-2998 colon,> 100 µM
same,TGI,UACC-62 melanoma,> 100 µM
same,TGI,SF-268 CNS,> 100 µM
same,TGI,HT29 colon,> 100 µM
same,TGI,HL-60(TB) leukemia,> 100 µM
same,TGI,MOLT-4 leukemia,> 100 µM
same,TGI,OVCAR-4 ovarian,> 100 µM
CCN(CC)c1ccc(N=Nc2ccc(-c3nc4ccc[n+](C)c4o3)cc2)cc1,TGI,UACC-257 melanoma,20.2 µM
same,TGI,UACC-62 melanoma,22.6 µM
same,TGI,SF-268 CNS,31.4 µM
same,TGI,SR leukemia,20.9 µM
same,TGI,HT29 colon,24.3 µM
same,TGI,HL-60(TB) leukemia,7.32 µM
same,TGI,MOLT-4 leukemia,16.2 µM
same,TGI,HCT-15 colon,22.3 µM
same,TGI,OVCAR-4 ovarian,25.2 µM
N#C/C(=C\c1ccc(Br)cc1)n1nnc2ccc(F)cc21,GI50,UACC-257 melanoma,1.42 µM
same,TGI,UACC-257 melanoma,4.25 µM
same,GI50,HCC-2998 colon,1.43 µM
same,TGI,HCC-2998 colon,2.89 µM
same,GI50,UACC-62 melanoma,0.713 µM
same,TGI,UACC-62 melanoma,2.71 µM
same,GI50,SF-268 CNS,1.84 µM
same,TGI,SF-268 CNS,4.33 µM
same,GI50,SR leukemia,0.348 µM
same,TGI,SR leukemia,> 100 µM
same,GI50,HL-60(TB) leukemia,0.702 µM
same,TGI,HL-60(TB) leukemia,5.23 µM
same,GI50,MOLT-4 leukemia,2.18 µM
same,TGI,MOLT-4 leukemia,> 100 µM
same,GI50,HCT-15 colon,0.353 µM
same,TGI,HCT-15 colon,1.78 µM
same,GI50,OVCAR-4 ovarian,0.939 µM
same,TGI,OVCAR-4 ovarian,5.31 µM
